The values that follow come from patent US4957735A, “Target-sensitive immunoliposomes- preparation and characterization” (The University of Tennessee Research Corporation, priority 1987, dated 1990).

Series [1] relates to HSV. As to the kind of experiment: Efficacy in inhibiting HSV replication in L929 cells (virus yield, TCID50 assay). The format is cell-based, HSV-1, HF strain. Particulars: HSV-infected L929 cells; for free drug amount required for comparable antiviral activity relative to TS immunoliposome encapsulated AraC: FIG. 7B. How it is done:
The HF strain of HSV-1 was propagated on Hep-2 cell. After 3 cycles of freeze and thawing of the virus infected cells, the virus released were isolated from the supernatant after palleting the cell debris at 1000 g for 10 min. These virus stock contained 1×10^8 pfu/ml and were stored in -70° C.
(§1) Inhibitors were present throughout the assay. […] At 6 hr. […] At 42 hr.

Series [2] in a line: L929 cell toxicity assay ([3H]dT incorporation). Particulars: mouse, l929 cells. As for the experimental part: (§2) As a measure of cytotoxicity, the drug concentration required to inhibit 50% of [^3 H]dT incorporation 42 hr. later (CD50) was determined.
(§3) PI. […] At 42 hr. PI, the supernatant of the L929 cells was collected and titered for the virus yield. The toxicity of the drug on the general cell population was monitored by [^3 H]dT incorporation since both AraC and ACV inhibit the DNA synthesis.
(§4) L929 cells at 75-80% confluency in 96-well Coster plates were infected with 0.1 multiplicity of infection (MOI) in McCoy's medium with 2% CS for 1 hr. Then the infection medium was removed and replaced with McCoy's medium containing 10% CS. For the target sensitivity assay (see below), L929 cells were grown in 35-mm six-well Linbro plates and a similar procedure was used to infect the L929 cell with various concentration of HSV, ranging from 0-10 MOI.
(§5) HSV-infected L929 cells in 7-mm 96-well plates were used in these experiments and each experiment was performed in quadruplicate. At 3 hr. post infection (PI), the growth medium of infected or uninfected cell was removed, and replaced with 180 micro-l of either liposome-entrapped or free drug AraC or ACV containing medium.
(§6) In the experiments where nucleoside-transport inhibitors were used, the inhibitors were added at 30 min. prior to the AraC-entrapped liposome addition. Inhibitors were present throughout the assay. For the control experiments, the infection medium was replaced with the fresh growth medium. At 6 hr. PI, 1 micro-Ci of [^3 H]dT was added in 20 micro-l for cytotoxicity assay (see below). Then incubation continued at 37° C. in a CO2 incubator. At 42 hr. PI, the growth medium was removed and immediately titered for the virus yield using the 50% tissue culture infective dose (TCID50) assay using Vero cells. The TCID50 assay was done in quadruplicates and the results were expressed in average ±S.D.
(§7) Cytotoxicity of the L929 cells was determined by 20 labeling the cells at 6 hr. PI with [3H]dT. At 42 hr. PI, the growth medium was removed and the cells were washed with cold PBS for a total of three times. Then the DNA was precipitated with 5% trichloroacetic acid (TCA) at 4° C. After two cycles of 2 hr. incubation with fresh TCA, the precipitates at the bottom of the plates were washed one more time with 200 micro-l of fresh TCA. Finally, the precipitates were redissolved and dequenched with 1N NaOH overnight. The solubilized TCA precipitates were counted for tritium radioactivity. Data presented were the average ±S.D. of the quadruplicates.

A further series has as its system L929 cells. Briefly: L929 cell toxicity assay ([3H]dT incorporation). Particulars: for CD50 (drug concentration required to inhibit 50% of [3H]dT incorporation): 42 hr. As for the experimental part: as §2, §3, §4, §5, §6, §7
The subject of series [3] is HSV. As to the kind of experiment: Repression of TS immunoliposome mediated therapeutic effect by nucleoside transport inhibitors (HSV yield, TCID50 assay). The format is cell-based, HSV-1, HF strain. Particulars: for repression of therapeutic effect of AraC-encapsulated TS immunoliposomes: Table II; for Log[HSV], with liposome: 0.1 microg/ml AraC in TS immunoliposomes. As for the experimental part:
While not wishing to be bound by theory, it is believed that the surface deposition of TS immunoliposomes was followed by transport of liposome-released drugs into the cytosol via cellular nucleoside transporters. To test this hypothesis, the effect on virus replication of two nucleoside transport inhibitors, p-nitrothiobenzylinosine, and dipyridamole were investigated.
PI was determined using the TCID50 assay described in Example 14
^b HSV infected cells were treated with or without 0.1 microg/ml
(ug/ml) of AraC encapsulated in the TS immunoliposomes.
as §1

In series [4] the target is nucleoside transport system. Particulars: cited from earlier work.

Each structure is given as a SMILES string. ≈ marks a conversion by molar mass, not a printed value. Like-named read-outs stand apart in the source and are kept apart here.

Usually CC50 stands for the concentration that lowers cell viability or growth by half. The low end stands for harm at low concentration, the high end for better tolerance by the cells. Turning to `Nc1nc2c(ncn2COCCO)c(=O)[nH]1` [ACV, acycloguanosine], in the series with HSV [1] (Human alphaherpesvirus 1, 42 hr. PI, FIG. 8, read-out: 50% effective dose (ED50), virus inhibition), the EC50 was found to be 1.1 µg/mL (≈ 4.88 µM). In series [2], the CC50 at 42 h was found to be 0.0125 µg/mL (≈ 0.0555 µM). Moreover, the “CD50 (drug concentration required to inhibit 50% of [3H]dT incorporation)” value with L929 cells was 12.5 ng/mL.

Broadly, the Ki is the dissociation constant of the complex between target and ligand, obtained from inhibition or displacement. On to `OCCN(CCO)c1nc(N2CCCCC2)c2nc(N(CCO)CCO)nc(N3CCCCC3)c2n1` [Dipyridamole], for which the “repression of therapeutic effect of AraC-encapsulated TS immunoliposomes” value in the series with HSV [3] is “concentration dependent”. In addition, in the series with HSV [3] (inhibitor 1.4 uM), the “Log[HSV] Diff. (with vs without liposome)” value was 1.6; the “Log[HSV], without liposome” value is listed as 5.3 ± 0.3; the “Log[HSV], with liposome” value was determined as 3.7 ± 0.3. Besides, in the series with HSV [3] (inhibitor 11.1 uM), the “Log[HSV] Diff. (with vs without liposome)” value stood at 1.4; the “Log[HSV], without liposome” value was 4.8 ± 0.3; the “Log[HSV], with liposome” value amounted to 3.4 ± 0.4. Besides, the Ki in series [4] (noncompetitive inhibitor) is 3000 nM.

On to `O=[N+]([O-])c1ccc(CSc2ncnc3c2ncn3[C@@H]2O[C@H](CO)[C@@H](O)[C@H]2O)cc1` [p-Nitrothiobenzylinosine, S-(p-Nitrobenzyl)-6-thioinosine], for which, in the series with HSV [3], the “repression of therapeutic effect of AraC-encapsulated TS immunoliposomes” value was “concentration dependent”. Further, in the series with HSV [3] (inhibitor 12.5 nM), the “Log[HSV] Diff. (with vs without liposome)” value was found to be 2.3; the “Log[HSV], without liposome” value was 5.1 ± 0.9; the “Log[HSV], with liposome” value is recorded as 2.8 ± 0.8. Besides, in the series with HSV [3] (inhibitor 100.0 nM), the “Log[HSV] Diff. (with vs without liposome)” value is reported as 0.8; the “Log[HSV], without liposome” value worked out at 4.6 ± 0.2; the “Log[HSV], with liposome” value is given as 3.8 ± 0.4. In series [4] (competitive inhibitor), the Ki was 1 nM.

As for `Nc1ccn([C@@H]2O[C@H](CO)[C@@H](O)[C@@H]2O)c(=O)n1` [AraC, cytosine-beta-D-arabinoside], the “inhibition of virus replication” value in the series on HSV [1] is recorded as “only a marginal effect on virus replication”. In addition, the “free drug amount required for comparable antiviral activity relative to TS immunoliposome encapsulated AraC” value is given as “at least 1000 fold” with HSV [1] and no less than 1000 fold with HSV [1] (listed as free AraC). The compound also had a CC50 at 42 h in series [2] of 0.0003 µg/mL (≈ 0.00123 µM). In the series with L929 cells, the “CD50 (drug concentration required to inhibit 50% of [3H]dT incorporation)” value turned out to be 0.3 ng/mL. Besides, the “cytotoxicity” value in the series on L929 cells (HSV-infected / host L929 cells) is listed as “cytotoxic to infected cells”. For the same compound, the “cytotoxicity to uninfected cells” value with L929 cells (uninfected control cells, [3H]dT incorporation) is “cytotoxic”.
